Measurements reported in patent US20240294508A1, “RIP1 MODULATORS INCLUDING AZETIDINE CYCLIC UREAS, PREPARATIONS, AND USES THEREOF” (SIRONAX LTD., priority 2021, published 2024).
pEC50: −log10 of the molar value.

Tested on: HT-29 cells
Assay: HT29 cells 0FBS assay in vitro: TNF-α/SMAC mimetic/zVAD-FMK induced necroptosis, CellTiter-Glo cell viability (RIP1 inhibitory activity)
Format: cell-based
Conditions: Homo sapiens, FBS free medium, TNF-α (10 ng/ml) + SMAC mimetic (6 uM) + zVAD-FMK (10 μM), 20 hours, geometric mean EC50
In short: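 Luminescent ATP read-out (CellTiter-Glo) gave viability of HT-29 cells after 20 h at 37° C in serum-free medium containing compound and a necroptosis cocktail of 10 ng/ml TNF-α, 6 uM SMAC mimetic and 10 μM zVAD-FMK. EC50s are geometric means of 10-point curves run in duplicate.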

| Compound | pEC50 |
| --- | --- |
| Cc1cnn(C)c1-c1nc(OC2CN(C(=O)N3N=CC[C@H]3c3cc(F)cc(F)c3)C2)sc1CO [Compound 157, (S)-(5-(3,5-difluorophenyl)-4,5-dihydro-11H-pyrazol-1-yl)(3-((4-(1,4-dimethyl-1H-pyrazol-5-yl)-5-(hydroxymethyl)thiazol-2-yl)oxy)azetidin-1-yl)methanone] | 5.00 to 6.00 |
| Cn1ncc(C#N)c1-c1cc(OC2CN(C(=O)N3N=CC[C@H]3c3cc(F)cc(C#N)c3)C2)c(F)cn1 [Compound 9, (S)-5-(4-((1-(5-(3-cyano-5-fluorophenyl)-4,5-dihydro-1H-pyrazole-1-carbonyl)azetidin-3-yl)oxy)-5-fluoropyridin-2-yl)-1-methyl-1H-pyrazole-4-carbonitrile] | 7.00 to 10.00 |
| Cn1nccc1-c1cc(OC2CN(C(=O)N3N=CC[C@H]3c3cc(F)cc(C#N)c3)C2)c(F)cn1 [Compound 7, (S)-3-fluoro-5-(1-(3-((5-fluoro-2-(1-methyl-1H-pyrazol-5-yl)pyridin-4-yl)oxy)azetidine-1-carbonyl)-4,5-dihydro-1H-pyrazol-5-yl)benzonitrile] | 7.00 to 10.00 |
| Cc1cnc([C@@H]2CC=NN2C(=O)N2CC(Oc3cc(-c4c(C)cnn4C)ncc3F)C2)s1 [Compound 138, (S)-(3-((2-(1,4-dimethyl-1H-pyrazol-5-yl)-5-fluoropyridin-4-yl)oxy)azetidin-1-yl)(5-(5-methylthiazol-2-yl)-4,5-dihydro-1H-pyrazol-1-yl)methanone] | 7.00 to 10.00 |
| Cn1ccnc1-c1cc(OC2CN(C(=O)N3N=CC[C@H]3c3cc(F)cc(C#N)c3)C2)c(F)cn1 [Compound 36, (S)-3-fluoro-5-(1-(3-((5-fluoro-2-(1-methyl-1H-imidazol-2-yl)pyridin-4-yl)oxy)azetidine-1-carbonyl)-4,5-dihydro-1H-pyrazol-5-yl)benzonitrile] | 7.00 to 10.00 |
| Cc1nn(-c2cc(OC3CN(C(=O)N4N=CC[C@H]4c4cccc(F)c4)C3)c(F)cn2)c(C)c1C(=O)NCCO [Compound 75, (S)-1-(5-fluoro-4-((1-(5-(3-fluorophenyl)-4,5-dihydro-1H-pyrazole-1-carbonyl)azetidin-3-yl)oxy)pyridin-2-yl)-N-(2-hydroxyethyl)-3,5-dimethyl-1H-pyrazole-4-carboxamide] | 7.00 to 10.00 |
| Cc1nn(-c2cc(OC3CN(C(=O)N4N=CC[C@H]4c4cccc(F)c4)C3)c(F)cn2)c(C)c1C(N)=O [Compound 73, (S)-1-(5-fluoro-4-((1-(5-(3-fluorophenyl)-4,5-dihydro-1H-pyrazole-1-carbonyl)azetidin-3-yl)oxy)pyridin-2-yl)-3,5-dimethyl-1H-pyrazole-4-carb oxamide] | 7.00 to 10.00 |
| Cc1cnn(C)c1-c1cc(OC2CN(C(=O)N3N=CCC3c3cccnc3)C2)c(F)cn1 (stereo not shown) [Compound 99, (3-((2-(1,4-dimethyl-1H-pyrazol-5-yl)-5-fluoropyridin-4-yl)oxy)azetidin-1-yl)(5-(pyridin-3-yl)-4,5-dihydro-1H-pyrazol-1-yl)methanone] | 7.00 to 10.00 |
| Cc1cnn(C)c1-c1nc(OC2CN(C(=O)N3N=CC[C@H]3c3cc(F)cc(F)c3)C2)sc1Cl [Compound 149, (S)-(3-((5-chloro-4-(1,4-dimethyl-1H-pyrazol-5-yl)thiazol-2-yl)oxy)azetidin-1-yl)(5-(3,5-difluorophenyl)-4,5-dihydro-1H-pyrazol-1-yl)methanone] | 7.00 to 10.00 |
| Cc1noc(C)c1-c1ncc(F)c(OC2CN(C(=O)N3N=CC[C@H]3c3cc(F)cc(C#N)c3)C2)n1 [Compound 3, (S)-3-(1-(3-((2-(3,5-dimethylisoxazol-4-yl)-5-fluoropyrimidin-4-yl)oxy)azetidine-1-carbonyl)-4,5-dihydro-1H-pyrazol-5-yl)-5-fluorobenzonitrile] | 7.00 to 10.00 |
| Cc1nn(CC(N)=O)c(C)c1-c1cc(OC2CN(C(=O)N3N=CC[C@H]3c3cc(F)cc(C#N)c3)C2)c(F)cn1 [Compound 21, (S)-2-(4-(4-((1-(5-(3-cyano-5-fluorophenyl)-4,5-dihydro-1H-pyrazole-1-carbonyl)azetidin-3-yl)oxy)-5-fluoropyridin-2-yl)-3,5-dimethyl-1H-pyrazol-1-yl)acetamide] | 7.00 to 10.00 |
| Cc1nc(C#N)c(C)n1-c1cc(OC2CN(C(=O)N3N=CC[C@H]3c3cncc(F)c3)C2)c(F)cn1 [Compound 68, (S)-1-(5-fluoro-4-((1-(5-(5-fluoropyridin-3-yl)-4,5-dihydro-1H-pyrazole-1-carbonyl)azetidin-3-yl)oxy)pyridin-2-yl)-2,5-dimethyl-1H-imidazole-4-carbonitrile] | 6.00 to 7.00 |
| Cc1cnn(C)c1-c1cc(OC2CN(C(=O)N3N=CCC3c3ccccn3)C2)c(F)cn1 (stereo not shown) [Compound 100, (3-((2-(1,4-dimethyl-1H-pyrazol-5-yl)-5-fluoropyridin-4-yl)oxy)azetidin-1-yl)(5-(pyridin-2-yl)-4,5-dihydro-1H-pyrazol-1-yl)methanone] | 7.00 to 10.00 |
| Cc1nn(-c2cc(OC3CN(C(=O)N4N=CC[C@H]4c4cc(F)cc(C#N)c4)C3)c(F)cn2)c(C)c1C(=O)NC1CC1 [Compound 86, (S)-1-(4-((1-(5-(3-cyano-5-fluorophenyl)-4,5-dihydro-1H-pyrazole-1-carbonyl)azetidin-3-yl)oxy)-5-fluoropyridin-2-yl)-N-cyclopropyl-3,5-dimethyl-1H-pyrazole-4-carboxamide] | 7.00 to 10.00 |
| Cc1cnn(C)c1-c1cc(OC2CN(C(=O)N3N=CC[C@H]3c3cc(F)cc(C#N)c3)C2)c(F)cn1 [Compound 11, (S)-3-(1-(3-((2-(1,4-dimethyl-1H-pyrazol-5-yl)-5-fluoropyridin-4-yl)oxy)azetidine-1-carbonyl)-4,5-dihydro-1H-pyrazol-5-yl)-5-fluorobenzonitrile] | 7.00 to 10.00 |
| COCCn1nc(C)c(-c2cc(OC3CN(C(=O)N4N=CC[C@H]4c4cc(F)cc(C#N)c4)C3)c(F)cn2)c1C [Compound 20, (S)-3-fluoro-5-(1-(3-((5-fluoro-2-(1-(2-methoxyethyl)-3,5-dimethyl-1H-pyrazol-4-yl)pyridin-4-yl)oxy)azetidine-1-carbonyl)-4,5-dihydro-1H-pyrazol-5-yl)benzonitrile] | 7.00 to 10.00 |
| Cc1cc(F)cc(C2CC=NN2C(=O)N2CC(Oc3cc(-n4nc(C)c(C(N)=O)c4C)ncc3F)C2)c1 (stereo not shown) [Compound 118, 1-(5-fluoro-4-((1-(5-(3-fluoro-5-methylphenyl)-4,5-dihydro-1H-pyrazole-1-carbonyl)azetidin-3-yl)oxy)pyridin-2-yl)-3,5-dimethyl-1H-pyrazole-4-carboxamide] | 7.00 to 10.00 |
| Cc1nn(-c2cc(OC3CN(C(=O)N4N=CC[C@H]4c4cc(F)cc(Cl)c4)C3)c(F)cn2)c(C)c1C(N)=O [Compound 133, (S)-1-(4-((1-(5-(3-chloro-5-fluorophenyl)-4,5-dihydro-1H-pyrazole-1-carbonyl)azetidin-3-yl)oxy)-5-fluoropyridin-2-yl)-3,5-dimethyl-1H-pyrazole-4-carboxamide] | 7.00 to 10.00 |
| Cc1noc(C)c1-c1ncc(F)c(OC2CN(C(=O)N3N=CC[C@H]3c3cncc(F)c3)C2)n1 [Compound 4, (S)-(3-((2-(3,5-dimethylisoxazol-4-yl)-5-fluoropyrimidin-4-yl)oxy)azetidin-1-yl)(5-(5-fluoropyridin-3-yl)-4,5-dihydro-1H-pyrazol-1-yl)methanone] | 7.00 to 10.00 |
